According to US11427606B2, “Azithromycin derivatives containing a phosphonium ion as anticancer agents” (Rising Tide Foundation, priority 2017, dated 2022):

What follows are compounds tested on MDA-231 cancer cells (assay: Inhibition of proliferation assay: cell confluence (IncuCyte imaging)). Conditions: compound at 10 uM; MDA-231 cells; IncuCyte images every 3 h over 4-5 d; relative confluence normalised to time zero.
Assay type: cell-based
Procedure, shortened: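 MDA-231 cancer cells from ATCC were grown in DMEM with 10% FBS, 2 mM Glutamax, 1 mM NEAA and 1 mM sodium pyruvate. An IncuCyte Live Cell Imaging microscope with a 10× objective imaged one field per well every 3 h for 4-5 d. Its built-in algorithm computed percent confluence as a proliferation surrogate, and values were normalised to each sample's time-zero value.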

Q: `CC[C@H]1OC(=O)[C@H](C)[C@@H](O[C@H]2C[C@@](C)(OC)[C@@H](O)[C@H](C)O2)[C@H](C)[C@@H](O[C@@H]2O[C@H](C)C[C@H](N(C)C)[C@H]2O)[C@](C)(O)C[C@@H](C)CN(C(=O)CCCCCCCCCCC[PH](C)(C)c2ccccc2)[C@H](C)[C@@H](O)[C@]1(C)O` [Example 23, {12-[(2R,3S,4R,5R,8R,10R,11R,12S,13S,14R)-11-{[(2S,3R,4S,6R)-4-(dimethylamino)-3-hydroxy-6-methyloxan-2-yl]oxy}-2-ethyl-3,4,10-trihydroxy-13-{[(2R,4R,5S,6S)-5-hydroxy-4-methoxy-4,6-dimethyloxan-2-yl]oxy}-3,5,8,10,12,14-hexamethyl-15-oxo-1-oxa-6-azacyclopentadecan-6-yl]-12-oxododecyl}dimethylphenylphosphonium chloride] was tested. Which “% Confluence” value did it give?
A: 7.5%

Q: With `CC[C@H]1OC(=O)[C@H](C)[C@@H](O[C@H]2C[C@@](C)(OC)[C@@H](O)[C@H](C)O2)[C@H](C)[C@@H](O[C@@H]2O[C@H](C)C[C@H](N(C)C)[C@H]2O)[C@](C)(O)C[C@@H](C)CN(C(=O)CCCCCCC[P+](c2ccccc2)(c2ccccc2)c2ccccc2-c2ccccc2)[C@H](C)[C@@H](O)[C@]1(C)O` [Example 18, {[1,1′-biphenyl]-2-yl}({8-[(2R,3S,4R,5R,8R,10R,11R,12S,13S,14R)-11-{[(2S,3R,4S,6R)-4-(dimethylamino)-3-hydroxy-6-methyloxan-2-yl]oxy}-2-ethyl-3,4,10-trihydroxy-13-{[(2R,4R,5S,6S)-5-hydroxy-4-methoxy-4,6-dimethyloxan-2-yl]oxy}-3,5,8,10,12,14-hexamethyl-15-oxo-1-oxa-6-azacyclopentadecan-6-yl]-8-oxooctyl})diphenylphosphonium hexafluorophosphate(V)] as the compound, how does the “% Confluence” value read?
A: 7.7%

Q: `CC[C@H]1OC(=O)[C@H](C)[C@@H](O[C@H]2C[C@@](C)(OC)[C@@H](O)[C@H](C)O2)[C@H](C)[C@@H](O[C@@H]2O[C@H](C)C[C@H](N(C)C)[C@H]2O)[C@](C)(O)C[C@@H](C)CN(C(=O)CCCCCCCCCCC[PH](c2ccccc2)(c2ccccc2)C2CCOCC2)[C@H](C)[C@@H](O)[C@]1(C)O` [Example 35, {12-[(2R,3S,4R,5R,8R,10R,11R,12S,13S,14R)-11-{[(2S,3R,4S,6R)-4-(dimethylamino)-3-hydroxy-6-methyloxan-2-yl]oxy}-2-ethyl-3,4,10-trihydroxy-13-{[(2R,4R,5S,6S)-5-hydroxy-4-methoxy-4,6-dimethyloxan-2-yl]oxy}-3,5,8,10,12,14-hexamethyl-15-oxo-1-oxa-6-azacyclopentadecan-6-yl]-12-oxododecyl}(oxan-4-yl)diphenylphosphonium chloride] was tested. Which “% Confluence” value did it give?
A: 97.2%

Q: With `CC[C@H]1OC(=O)[C@H](C)[C@@H](O[C@H]2C[C@@](C)(OC)[C@@H](O)[C@H](C)O2)[C@H](C)[C@@H](O[C@@H]2O[C@H](C)C[C@H](N(C)C)[C@H]2O)[C@](C)(O)C[C@@H](C)CN(C(=O)CCCCC[P+](c2cc(C)cc(C)c2)(c2cc(C)cc(C)c2)c2cc(C)cc(C)c2)[C@H](C)[C@@H](O)[C@]1(C)O` [Example 1, {6-[(2R,3S,4R,5R,8R,10R,11R,12S,13S,14R)-11-{[(2S,3R,4S,6R)-4-(dimethylamino)-3-hydroxy-6-methyloxan-2-yl]oxy}-2-ethyl-3,4,10-trihydroxy-13-{[(2R,4R,5S,6S)-5-hydroxy-4-methoxy-4,6-dimethyloxan-2-yl]oxy}-3,5,8,10,12,14-hexamethyl-15-oxo-1-oxa-6-azacyclopentadecan-6-yl]-6-oxohexyl}tris(3,5-dimethylphenyl)phosphoniumhexafluorophosphate(V)] as the compound, how does the “% Confluence” value read?
A: 4.8%
